Results reported in PubChem BioAssay AID2060889 (Molecular Pharmacology Branch, DTP, NCI, 2025).

System: LG0567-F671-PDC complex spheroids viability
Assay: Anticancer human tumor LG0567-F671-PDC patient-derived lung adenocarcinoma cell line growth inhibition [RAS]
Conditions: for IC50: curve of first compound; for viability, T/C: stronger effect = lower value
Method in brief: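 Tumour cells grown as complex spheroids with HUVEC endothelial cells and mesenchymal stem cells, treated with RAS pathway inhibitor combinations. Each agent spans half-log steps from near clinical Cmax, or 10 microM where Cmax is unknown.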

[1] = second compound 0.000949 µM, first compound 0.0316 µM
[2] = second compound 0.000949 µM, first compound 0.1 µM
[3] = second compound 0.000949 µM, first compound 0.316 µM
[4] = second compound 0.000949 µM, first compound 1 µM
[5] = second compound 0.000949 µM, first compound 3.16 µM
[6] = second compound 0.000949 µM, first compound 10 µM
[7] = second compound 0.003 µM, first compound 0.0316 µM
[8] = second compound 0.003 µM, first compound 0.1 µM
[9] = second compound 0.003 µM, first compound 0.316 µM
[10] = second compound 0.003 µM, first compound 1 µM
[11] = second compound 0.003 µM, first compound 3.16 µM
[12] = second compound 0.003 µM, first compound 10 µM
[13] = second compound 0.00949 µM, first compound 0.0316 µM
[14] = second compound 0.00949 µM, first compound 0.1 µM
[15] = second compound 0.00949 µM, first compound 0.316 µM
[16] = second compound 0.00949 µM, first compound 1 µM
[17] = second compound 0.00949 µM, first compound 3.16 µM
[18] = second compound 0.00949 µM, first compound 10 µM
[19] = second compound 0.03 µM, first compound 0.0316 µM
[20] = second compound 0.03 µM, first compound 0.1 µM
[21] = second compound 0.03 µM, first compound 0.316 µM
[22] = second compound 0.03 µM, first compound 1 µM
[23] = second compound 0.03 µM, first compound 3.16 µM
[24] = second compound 0.03 µM, first compound 10 µM
[25] = second compound 0.0949 µM, first compound 0.0316 µM
[26] = second compound 0.0949 µM, first compound 0.1 µM
[27] = second compound 0.0949 µM, first compound 0.316 µM
[28] = second compound 0.0949 µM, first compound 1 µM
[29] = second compound 0.0949 µM, first compound 3.16 µM
[30] = second compound 0.0949 µM, first compound 10 µM
[31] = second compound 0.3 µM, first compound 0.0316 µM
[32] = second compound 0.3 µM, first compound 0.1 µM
[33] = second compound 0.3 µM, first compound 0.316 µM
[34] = second compound 0.3 µM, first compound 1 µM
[35] = second compound 0.3 µM, first compound 3.16 µM
[36] = second compound 0.3 µM, first compound 10 µM
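Further: spheroids exposed to compound for seven days before readout.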
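Wherever IC50 is given: luminescence signal used as a proxy for viable cells.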

CC1(O)CCCC1n1c(=O)c(C(F)F)cc2cnc(NC3CCN(S(C)(=O)=O)CC3)nc21 (stereo not drawn) + CCn1c(-c2cccnc2C(C)OC)c2c3cc(ccc31)N1CCOC(CC(NC(=O)C(C(C)C)N(C)C(=O)C3(F)CCN(C(=O)C#CC(C)(C)N(C)C)CC3)C(=O)N3CCCC(N3)C(=O)OCC(C)(C)C2)C1
IC50 (second compound 0.000949 µM): < 31.6 nM | IC50 (second compound 0.003 µM): < 31.6 nM | IC50 (second compound 0.00949 µM): < 31.6 nM | IC50 (second compound 0.03 µM): < 31.6 nM | IC50 (second compound 0.0949 µM): < 31.6 nM | IC50 (second compound 0.3 µM): < 31.6 nM | viability, T/C [1]: 17.6% | viability, T/C [2]: 18.2% | viability, T/C [3]: 18.2% | viability, T/C [4]: 21.6% | viability, T/C [5]: 22.6% | viability, T/C [6]: 18% | viability, T/C [7]: 17.6% | viability, T/C [8]: 16.9% | viability, T/C [9]: 18.5% | viability, T/C [10]: 21.3% | viability, T/C [11]: 24.5% | viability, T/C [12]: 16.8% | viability, T/C [13]: 15.8% | viability, T/C [14]: 16.7% | viability, T/C [15]: 20.2% | viability, T/C [16]: 20.4% | viability, T/C [17]: 20.7% | viability, T/C [18]: 16.2% | viability, T/C [19]: 14.5% | viability, T/C [20]: 15.2% | viability, T/C [21]: 19.5% | viability, T/C [22]: 19.1% | viability, T/C [23]: 20.2% | viability, T/C [24]: 16.3% | viability, T/C [25]: 13.5% | viability, T/C [26]: 15.5% | viability, T/C [27]: 16.1% | viability, T/C [28]: 17.1% | viability, T/C [29]: 18.6% | viability, T/C [30]: 15.6% | viability, T/C [31]: 11.8% | viability, T/C [32]: 12.4% | viability, T/C [33]: 14.1% | viability, T/C [34]: 16.2% | viability, T/C [35]: 17.4% | viability, T/C [36]: 11.8%

CCC(CC)c1cc(NC2CCC(N)C2)n2nccc2n1 (stereo not drawn) + CCn1c(-c2cccnc2C(C)OC)c2c3cc(ccc31)N1CCOC(CC(NC(=O)C(C(C)C)N(C)C(=O)C3(F)CCN(C(=O)C#CC(C)(C)N(C)C)CC3)C(=O)N3CCCC(N3)C(=O)OCC(C)(C)C2)C1
IC50 (second compound 0.000949 µM): < 31.6 nM | IC50 (second compound 0.003 µM): < 31.6 nM | IC50 (second compound 0.00949 µM): < 31.6 nM | IC50 (second compound 0.03 µM): < 31.6 nM | IC50 (second compound 0.0949 µM): < 31.6 nM | IC50 (second compound 0.3 µM): < 31.6 nM | viability, T/C [1]: 21.2% | viability, T/C [2]: 16.6% | viability, T/C [3]: 13.3% | viability, T/C [4]: 13.9% | viability, T/C [5]: 4.31% | viability, T/C [6]: 0.82% | viability, T/C [7]: 14.1% | viability, T/C [8]: 16.1% | viability, T/C [9]: 14.6% | viability, T/C [10]: 13.5% | viability, T/C [11]: 4.44% | viability, T/C [12]: 0.75% | viability, T/C [13]: 13.7% | viability, T/C [14]: 15% | viability, T/C [15]: 13.3% | viability, T/C [16]: 14.2% | viability, T/C [17]: 3.48% | viability, T/C [18]: 0.89% | viability, T/C [19]: 13.2% | viability, T/C [20]: 13.2% | viability, T/C [21]: 11.8% | viability, T/C [22]: 12.3% | viability, T/C [23]: 3.67% | viability, T/C [24]: 0.88% | viability, T/C [25]: 10.6% | viability, T/C [26]: 12.2% | viability, T/C [27]: 10.4% | viability, T/C [28]: 12% | viability, T/C [29]: 4.19% | viability, T/C [30]: 1% | viability, T/C [31]: 8.88% | viability, T/C [32]: 7.92% | viability, T/C [33]: 8.86% | viability, T/C [34]: 9.25% | viability, T/C [35]: 3.79% | viability, T/C [36]: 0.7%

Cc1nc(N2CCC3(CC2)COC(C)C3N)c(CO)nc1Sc1ccnc(N)c1Cl (stereo not drawn) + CCn1c(-c2cccnc2C(C)OC)c2c3cc(ccc31)N1CCOC(CC(NC(=O)C(C(C)C)N(C)C(=O)C3(F)CCN(C(=O)C#CC(C)(C)N(C)C)CC3)C(=O)N3CCCC(N3)C(=O)OCC(C)(C)C2)C1
IC50 (second compound 0.000949 µM): < 31.6 nM | IC50 (second compound 0.003 µM): < 31.6 nM | IC50 (second compound 0.00949 µM): < 31.6 nM | IC50 (second compound 0.03 µM): < 31.6 nM | IC50 (second compound 0.0949 µM): < 31.6 nM | IC50 (second compound 0.3 µM): < 31.6 nM | viability, T/C [1]: 10.8% | viability, T/C [2]: 7.91% | viability, T/C [3]: 6.47% | viability, T/C [4]: 4.21% | viability, T/C [5]: 2.97% | viability, T/C [6]: 3.86% | viability, T/C [7]: 12% | viability, T/C [8]: 8.89% | viability, T/C [9]: 6.21% | viability, T/C [10]: 4.14% | viability, T/C [11]: 3.41% | viability, T/C [12]: 2.94% | viability, T/C [13]: 10.7% | viability, T/C [14]: 8.42% | viability, T/C [15]: 5.46% | viability, T/C [16]: 3.45% | viability, T/C [17]: 2.86% | viability, T/C [18]: 3.85% | viability, T/C [19]: 10.3% | viability, T/C [20]: 6.81% | viability, T/C [21]: 6.16% | viability, T/C [22]: 3.36% | viability, T/C [23]: 2.76% | viability, T/C [24]: 2.27% | viability, T/C [25]: 6.53% | viability, T/C [26]: 6.31% | viability, T/C [27]: 5% | viability, T/C [28]: 3.1% | viability, T/C [29]: 2.61% | viability, T/C [30]: 3.31% | viability, T/C [31]: 6.4% | viability, T/C [32]: 4.69% | viability, T/C [33]: 3.02% | viability, T/C [34]: 3.78% | viability, T/C [35]: 2.19% | viability, T/C [36]: 3.11%

NC1c2ccccc2OC12CCN(c1cnc3c(N4CCCc5ncccc54)n[nH]c3n1)CC2 (stereo not drawn) + CCn1c(-c2cccnc2C(C)OC)c2c3cc(ccc31)N1CCOC(CC(NC(=O)C(C(C)C)N(C)C(=O)C3(F)CCN(C(=O)C#CC(C)(C)N(C)C)CC3)C(=O)N3CCCC(N3)C(=O)OCC(C)(C)C2)C1
IC50 (second compound 0.000949 µM): < 31.6 nM | IC50 (second compound 0.003 µM): < 31.6 nM | IC50 (second compound 0.00949 µM): < 31.6 nM | IC50 (second compound 0.03 µM): < 31.6 nM | IC50 (second compound 0.0949 µM): < 31.6 nM | IC50 (second compound 0.3 µM): < 31.6 nM | viability, T/C [1]: 4.75% | viability, T/C [2]: 4.54% | viability, T/C [3]: 2.82% | viability, T/C [4]: 2.6% | viability, T/C [5]: 3.24% | viability, T/C [6]: 2.18% | viability, T/C [7]: 5.7% | viability, T/C [8]: 4.2% | viability, T/C [9]: 3.08% | viability, T/C [10]: 2.79% | viability, T/C [11]: 2.89% | viability, T/C [12]: 3% | viability, T/C [13]: 6.21% | viability, T/C [14]: 3.69% | viability, T/C [15]: 3.15% | viability, T/C [16]: 2.2% | viability, T/C [17]: 1.99% | viability, T/C [18]: 1.74% | viability, T/C [19]: 4.82% | viability, T/C [20]: 4.27% | viability, T/C [21]: 2.5% | viability, T/C [22]: 1.95% | viability, T/C [23]: 1.88% | viability, T/C [24]: 2.47% | viability, T/C [25]: 4.25% | viability, T/C [26]: 3.02% | viability, T/C [27]: 2.73% | viability, T/C [28]: 1.84% | viability, T/C [29]: 1.66% | viability, T/C [30]: 1.44% | viability, T/C [31]: 3.31% | viability, T/C [32]: 2.55% | viability, T/C [33]: 1.71% | viability, T/C [34]: 1.65% | viability, T/C [35]: 1.27% | viability, T/C [36]: 2.62%
